How the values were obtained:
COS-7 cells = assay: In vitro toxicity, propidium iodide uptake, 48 h; type: cell-based, African green monkey
Protocol: (§1) The in vitro toxicity was performed as follows.

L929 cells = assay: In vitro toxicity, propidium iodide uptake, 48 h; type: cell-based, murine
Protocol: as §1

MEL cells = assay: In vitro toxicity, propidium iodide uptake, 48 h; type: cell-based, murine
Protocol: as §1

hKv1.5 = molecular target: T1, hKv1.5 (Homo sapiens, UniProt P22460); assay: Selectivity patch clamp, MEL cells expressing hKv1.5; type: cell-based
T1 construct: expressed in transfected cells; host or cells: MEL
Protocol: (§2) L929 cells stably expressing mKv1.1, rKv1.2, mKv1.3, and mKv3.1 and MEL cells stably expressing hKv1.5 have been previously described (Grissmer 1994, Mol. Pharmacol. 45: 1227). hKv1.4 and rKv4.2 were stably expressed in LTK (HK1–7). Channel expression was induced 8–12 h before the electrophysiological experiments by 4 μM dexamethasone (Sigma). HEK-293 cells stably expressing the skeletal muscle sodium channel hSkM1 (SCN4A) were generated in the laboratory of Dr. F. Lehmann-Horn. HEK-293 cells stably expressing hSloα were obtained from Dr. Andrew Tinker (Center for Clinical Pharmacology, University College London). L929, MEL, LTK and HEK cells were maintained in DMEM containing 10% heat-inactivated fetal calf serum (Summit Biotechnology, Fort Collins, Colo.) and 250 μg/ml G418 (Life Technologies, Inc.). Rat basophilic leukemia (RBL) cells were maintained in Eagle's minimum essential medium with 2 mM L-glutamine and 10% fetal calf serum. CHO cell were maintained in F12K media (ATCC). Human leukemic Jurkat E6–1 cells were cultured in RPMI 1640 supplemented with 10% fetal calf serum and 1 mM L-glutamine. T84 cells were maintained in a 1:1 mixture of Ham's F12 medium and DMEM with 2.5 mM L-glutamine and 10% fetal calf serum.
(§3) Recordings from the Jurkat SKCa channel were made in K^+ aspartate Ringer (Na^+ was replaced by K^+) with the same internal pipette solution. […]

ten cell lines = assay: In vitro toxicity, summary over the ten cell lines; details: at a concentration 100–250 times the Kd for IKCa1 channel block
Protocol: The in vitro toxicity was performed as follows. Jurkat E6-1, MEL, C2F3, NGP, NLF cells and human T-lymphocytes were seeded at 5×10^5 cells/ml, and L929, COS-7, CHO and RBL cells were seeded at 10^5 cells/ml in twelve-well plates. Drug (2 or 5 μM) was added in a final DMSO concentration of 0.1%. After 48 h of incubation at 37° C. with 5% CO2, cells were harvested by sucking them off the plates (suspension cells) or by trypsinization (adherent cell lines). Cells were centrifuged, resuspended in 0.5 ml PBS containing 1 μg/ml propidium iodide (PI), and red fluorescence measured on a FACScan flow cytometer after 20 min, 10^4 cells of every sample being analyzed. The percentage of dead cells was determined by their PI uptake. Two controls for every cell line (one in medium and one with 0.1% DMSO) were also analyzed.

hKv1.4 = molecular target: T2, hKv1.4 (Homo sapiens, UniProt P22459); assay: Selectivity patch clamp, LTK cells expressing hKv1.4; type: cell-based
T2 construct: expressed in transfected cells; host or cells: LTK (dexamethasone-induced)
T2 sequence (P22459 whole entry): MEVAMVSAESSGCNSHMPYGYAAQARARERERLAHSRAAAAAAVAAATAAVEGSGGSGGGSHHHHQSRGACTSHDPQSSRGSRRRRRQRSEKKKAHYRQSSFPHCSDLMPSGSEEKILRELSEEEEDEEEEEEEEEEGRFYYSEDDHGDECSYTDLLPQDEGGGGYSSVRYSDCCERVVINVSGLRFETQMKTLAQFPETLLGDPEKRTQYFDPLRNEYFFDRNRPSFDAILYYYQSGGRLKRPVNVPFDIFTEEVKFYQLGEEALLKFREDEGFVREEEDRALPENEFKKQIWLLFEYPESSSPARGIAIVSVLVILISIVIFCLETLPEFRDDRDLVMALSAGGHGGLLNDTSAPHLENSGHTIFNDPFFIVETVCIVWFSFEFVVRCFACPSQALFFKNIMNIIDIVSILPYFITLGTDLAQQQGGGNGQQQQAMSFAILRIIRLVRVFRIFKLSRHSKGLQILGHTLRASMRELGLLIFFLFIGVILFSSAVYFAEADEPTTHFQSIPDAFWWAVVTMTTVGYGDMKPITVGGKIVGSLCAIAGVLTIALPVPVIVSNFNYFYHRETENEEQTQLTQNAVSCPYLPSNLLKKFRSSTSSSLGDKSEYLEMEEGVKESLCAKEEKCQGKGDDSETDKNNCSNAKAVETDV
Protocol: as §2, §3

[1] = molecular target: Kv1.1–1.5, Kv3.1, Kv4.2, Jurkat-SKCa, BKCa, hSKM1-Na, CRAC and lymphocyte chloride channels; assay: Selectivity on other cloned and native ion channels; type: cell-based; details: all channels of the panel
Protocol: as §2, §3

rKv1.2 = molecular target: T3, rKv1.2 (Rattus norvegicus, UniProt P63142); assay: Selectivity patch clamp, L929 cells expressing rKv1.2; type: cell-based
T3 construct: expressed in transfected cells; host or cells: L929
T3 sequence (P63142 whole entry): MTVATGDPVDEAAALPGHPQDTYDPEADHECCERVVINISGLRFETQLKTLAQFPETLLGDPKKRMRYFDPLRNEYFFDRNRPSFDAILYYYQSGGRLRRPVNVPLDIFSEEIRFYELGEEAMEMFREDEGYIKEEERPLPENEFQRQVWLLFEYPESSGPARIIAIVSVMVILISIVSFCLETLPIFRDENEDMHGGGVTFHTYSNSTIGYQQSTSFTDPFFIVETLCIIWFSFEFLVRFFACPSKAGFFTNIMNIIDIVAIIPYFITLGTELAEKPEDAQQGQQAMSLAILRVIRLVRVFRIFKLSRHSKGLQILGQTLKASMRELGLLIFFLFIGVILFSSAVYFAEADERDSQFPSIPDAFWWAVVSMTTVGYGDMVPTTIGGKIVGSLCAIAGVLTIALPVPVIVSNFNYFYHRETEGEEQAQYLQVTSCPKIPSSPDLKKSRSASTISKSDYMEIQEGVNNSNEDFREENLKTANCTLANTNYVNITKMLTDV
Protocol: as §2, §3

mKv1.1 = molecular target: T4, mKv1.1 (Mus musculus, UniProt P16388); assay: Selectivity patch clamp, L929 cells expressing mKv1.1; type: cell-based
T4 construct: expressed in transfected cells; host or cells: L929
Protocol: as §2, §3

CHO cells = assay: In vitro toxicity, propidium iodide uptake, 48 h; type: cell-based, Chinese hamster
Protocol: as §1

CF-1 BR mice = assay: ISO acute systemic toxicity study; details: single i.v. 0.5 mg/kg
Protocol: An ISO acute systemic toxicity study was performed in CF-1 BR mice (17–19 g) according to the guidelines of the United States Pharmacopeia XXII. […] Five control mice were injected with an equal volume of the vehicle. The mice were weighed at the beginning of the study and at its termination.

BK (hSloα) = molecular target: T5, BK (hSloα) (Homo sapiens, UniProt Q12791); assay: Selectivity patch clamp, HEK-293 cells expressing hSloα (BKCa); type: cell-based
T5 construct: expressed in transfected cells; host or cells: HEK-293
Protocol: as §2, §3

[2] = Hydrolytic stability by HPLC; details: for stability against hydrolysis: over 72 h
Protocol: A Waters 590 liquid chromatograph with a Waters 746 integrator and a Waters 486 UVN is detector, and a 25 cm Lichrospher RP18 column (5-μM particle size) was used. The mobile phase consisted of K2HPO4 25 mM, KH2PO4 30 mM, methanol at 262:13:725. The chromatographic separation was performed at 20° C. with a flow rate of 1.0 ml/min, the absorbance of the elluent was monitored at 210 nm.
Hydrolysis profiles (10 μM compound with 20% acetonitrile) were carried out in Soerensen phosphate buffer (pH 7.4 and pH 5.0) in a total volume of 10 ml. 100 μl samples were collected 0, 1, 2, 3, 4, 5, 24, 48 and 72 hours after incubation, with shaking, in a waterbath at 37° C. and manually injected into the HPLC over Rheodyne 7125 system. For profiles at pH 1.0 artificial stomach fluid (DAB 9), containing 2 g NaCl, 3,2 g pepsin and 80 ml 1 M HCL in 1.0 L of water was used. After 0, 1 and 2 hours 400 μl of sample were collected and extracted three times with 500 μl of ethyl ether by vortexing. The combined extracts were than evaporated to dryness by passing nitrogen through the solution. The residue was than dissolved in 400 μl of mobile phase of which […] were injected in the HPLC.

rKir2.1 = molecular target: T6, rKir2.1 (Rattus norvegicus, UniProt Q64273); assay: Selectivity patch clamp, RBL inward rectifier; type: cell-based; details: RBL cells; slope conductance at −110 mV
T6 construct: endogenous in cells; host or cells: RBL (rat basophilic leukemia)
Protocol: as §2, §3

HSKM1 = molecular target: T7, HSKM1 (Homo sapiens, UniProt P35499); assay: Selectivity patch clamp, HEK-293 cells expressing skeletal muscle sodium channel hSkM1 (SCN4A); type: cell-based
T7 construct: expressed in transfected cells; host or cells: HEK-293
T7 sequence (P35499 whole entry): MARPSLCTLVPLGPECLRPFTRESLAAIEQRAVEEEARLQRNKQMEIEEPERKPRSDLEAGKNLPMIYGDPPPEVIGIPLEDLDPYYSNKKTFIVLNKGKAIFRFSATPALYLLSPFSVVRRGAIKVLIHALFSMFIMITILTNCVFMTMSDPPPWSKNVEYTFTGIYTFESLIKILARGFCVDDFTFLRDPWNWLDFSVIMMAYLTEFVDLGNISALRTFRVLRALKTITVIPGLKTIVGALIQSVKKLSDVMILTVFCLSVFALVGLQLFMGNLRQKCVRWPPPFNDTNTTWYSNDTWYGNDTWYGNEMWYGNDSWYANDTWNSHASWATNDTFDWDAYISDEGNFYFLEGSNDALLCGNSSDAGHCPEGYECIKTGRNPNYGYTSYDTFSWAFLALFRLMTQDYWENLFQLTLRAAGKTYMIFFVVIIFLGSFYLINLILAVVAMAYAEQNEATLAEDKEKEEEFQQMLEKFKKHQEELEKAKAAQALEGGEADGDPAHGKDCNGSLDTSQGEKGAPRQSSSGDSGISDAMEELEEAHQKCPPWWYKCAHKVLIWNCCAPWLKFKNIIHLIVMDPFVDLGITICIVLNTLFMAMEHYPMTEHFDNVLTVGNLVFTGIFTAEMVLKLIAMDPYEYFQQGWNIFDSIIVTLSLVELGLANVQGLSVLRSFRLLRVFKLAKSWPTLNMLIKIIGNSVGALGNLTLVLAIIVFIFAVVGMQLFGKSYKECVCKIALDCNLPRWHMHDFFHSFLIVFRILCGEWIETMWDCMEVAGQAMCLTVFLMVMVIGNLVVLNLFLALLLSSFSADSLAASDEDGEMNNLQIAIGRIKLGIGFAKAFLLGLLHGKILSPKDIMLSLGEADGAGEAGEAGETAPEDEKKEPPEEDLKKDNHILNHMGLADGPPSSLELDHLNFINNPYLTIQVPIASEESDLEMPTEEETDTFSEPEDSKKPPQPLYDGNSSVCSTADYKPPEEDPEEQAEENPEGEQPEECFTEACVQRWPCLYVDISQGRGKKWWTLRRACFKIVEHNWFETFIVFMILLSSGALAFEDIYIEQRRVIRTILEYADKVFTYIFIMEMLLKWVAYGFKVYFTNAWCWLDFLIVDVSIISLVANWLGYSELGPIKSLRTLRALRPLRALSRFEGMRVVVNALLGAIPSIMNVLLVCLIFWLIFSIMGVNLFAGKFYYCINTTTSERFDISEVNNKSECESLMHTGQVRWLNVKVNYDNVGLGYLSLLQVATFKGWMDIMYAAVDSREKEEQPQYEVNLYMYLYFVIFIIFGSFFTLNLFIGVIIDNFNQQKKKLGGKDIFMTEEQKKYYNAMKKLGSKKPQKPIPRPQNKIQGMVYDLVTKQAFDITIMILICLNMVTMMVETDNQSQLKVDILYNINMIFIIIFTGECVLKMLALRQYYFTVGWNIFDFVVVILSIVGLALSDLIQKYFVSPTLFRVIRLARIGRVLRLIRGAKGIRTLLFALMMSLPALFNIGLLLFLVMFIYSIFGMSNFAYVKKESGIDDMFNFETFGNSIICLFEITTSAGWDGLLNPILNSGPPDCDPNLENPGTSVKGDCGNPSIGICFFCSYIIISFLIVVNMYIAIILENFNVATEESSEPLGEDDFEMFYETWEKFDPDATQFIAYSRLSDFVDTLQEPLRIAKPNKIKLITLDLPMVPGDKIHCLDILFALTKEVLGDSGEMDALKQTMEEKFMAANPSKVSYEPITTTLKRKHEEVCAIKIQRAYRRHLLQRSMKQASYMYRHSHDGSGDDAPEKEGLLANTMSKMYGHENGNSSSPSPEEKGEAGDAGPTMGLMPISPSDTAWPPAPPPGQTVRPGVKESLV
Protocol: as §2, §3

mKv1.3 = molecular target: T8, mKv1.3 (Mus musculus, UniProt P16390); assay: Selectivity patch clamp, L929 cells expressing mKv1.3; type: cell-based
T8 construct: expressed in transfected cells; host or cells: L929
T8 sequence (P16390 whole entry): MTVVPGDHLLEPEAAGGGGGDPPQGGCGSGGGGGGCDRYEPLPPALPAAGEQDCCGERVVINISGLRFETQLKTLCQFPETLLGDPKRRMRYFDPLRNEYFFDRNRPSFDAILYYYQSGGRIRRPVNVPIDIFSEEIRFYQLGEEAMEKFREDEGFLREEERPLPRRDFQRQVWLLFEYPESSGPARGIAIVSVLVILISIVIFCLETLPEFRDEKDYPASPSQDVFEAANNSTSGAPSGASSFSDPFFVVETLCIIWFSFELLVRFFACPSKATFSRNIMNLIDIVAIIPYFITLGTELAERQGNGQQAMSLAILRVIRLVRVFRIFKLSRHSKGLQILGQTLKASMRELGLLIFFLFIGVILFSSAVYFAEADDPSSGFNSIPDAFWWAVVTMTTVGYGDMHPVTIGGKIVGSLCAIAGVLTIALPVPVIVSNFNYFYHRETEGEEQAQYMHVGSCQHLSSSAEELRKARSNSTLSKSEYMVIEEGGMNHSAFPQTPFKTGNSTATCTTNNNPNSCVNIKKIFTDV
Protocol: as §2, §3

human T-lymphocytes = assay: In vitro toxicity, propidium iodide uptake, 48 h; type: cell-based
Protocol: as §1

Jurkat-SK = molecular target: T9, Jurkat-SK (Homo sapiens, UniProt Q9H2S1); assay: Selectivity patch clamp, Jurkat SKCa channel; type: cell-based
T9 construct: endogenous in cells; host or cells: Jurkat E6-1
T9 sequence (Q9H2S1 whole entry): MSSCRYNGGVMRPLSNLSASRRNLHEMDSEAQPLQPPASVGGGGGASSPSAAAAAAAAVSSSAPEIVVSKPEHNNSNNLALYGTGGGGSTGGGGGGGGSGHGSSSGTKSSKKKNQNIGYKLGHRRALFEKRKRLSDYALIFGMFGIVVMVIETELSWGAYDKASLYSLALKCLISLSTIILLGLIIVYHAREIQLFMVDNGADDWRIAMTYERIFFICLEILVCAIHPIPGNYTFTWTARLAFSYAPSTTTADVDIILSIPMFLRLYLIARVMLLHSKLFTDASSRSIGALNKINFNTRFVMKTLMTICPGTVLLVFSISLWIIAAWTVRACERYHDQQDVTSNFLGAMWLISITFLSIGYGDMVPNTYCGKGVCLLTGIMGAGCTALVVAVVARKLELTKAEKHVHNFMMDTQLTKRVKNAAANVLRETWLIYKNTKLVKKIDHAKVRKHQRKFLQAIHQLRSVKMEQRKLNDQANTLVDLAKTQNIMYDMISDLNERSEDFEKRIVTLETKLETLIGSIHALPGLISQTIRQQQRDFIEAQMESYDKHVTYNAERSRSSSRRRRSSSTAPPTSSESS
Protocol: as §2, §3

rKv4.2 = molecular target: T10, rKv4.2 (Rattus norvegicus, UniProt Q63881); assay: Selectivity patch clamp, LTK cells expressing rKv4.2; type: cell-based
T10 construct: expressed in transfected cells; host or cells: LTK (dexamethasone-induced)
T10 sequence (Q63881 whole entry): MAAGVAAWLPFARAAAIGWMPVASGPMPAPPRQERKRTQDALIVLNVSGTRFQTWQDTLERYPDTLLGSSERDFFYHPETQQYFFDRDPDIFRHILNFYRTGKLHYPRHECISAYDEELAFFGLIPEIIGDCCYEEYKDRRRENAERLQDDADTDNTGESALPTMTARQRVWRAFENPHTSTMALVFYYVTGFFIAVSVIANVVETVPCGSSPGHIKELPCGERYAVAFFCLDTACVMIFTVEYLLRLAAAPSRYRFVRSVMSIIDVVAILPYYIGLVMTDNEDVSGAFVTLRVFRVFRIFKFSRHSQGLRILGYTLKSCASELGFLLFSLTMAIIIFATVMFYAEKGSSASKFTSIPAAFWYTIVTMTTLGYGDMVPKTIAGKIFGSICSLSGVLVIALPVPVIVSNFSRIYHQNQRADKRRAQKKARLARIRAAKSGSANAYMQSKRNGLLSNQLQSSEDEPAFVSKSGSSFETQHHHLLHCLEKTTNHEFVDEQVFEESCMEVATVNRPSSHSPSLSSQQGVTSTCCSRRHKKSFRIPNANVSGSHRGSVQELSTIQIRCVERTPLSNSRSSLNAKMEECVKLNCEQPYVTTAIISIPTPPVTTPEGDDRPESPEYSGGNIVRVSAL
Protocol: as §2, §3

SMILES: Clc1ccccc1C(c1ccccc1)(c1ccccc1)n1cccn1 [Compound T34, 1-[(2-Chlorophenyl)diphenylmethyl]-1H-pyrazole]
- percentage of dead cells (PI uptake) (COS-7 cells; 2 μM): 3.6%
- percentage of dead cells (PI uptake) (COS-7 cells; 5 μM): 4.5%
- percentage of dead cells (PI uptake) (L929 cells; 2 μM): 4.6%
- percentage of dead cells (PI uptake) (L929 cells; 5 μM): 7.5%
- percentage of dead cells (PI uptake) (MEL cells; 2 μM): 6.2%
- percentage of dead cells (PI uptake) (MEL cells; 5 μM): 5.8%
- Kd (hKv1.5): 7 ± 0.62 µM
- cell viability in the ten cell lines examined (ten cell lines): did not reduce cell viability
- Kd (hKv1.4): 7.5 ± 0.41 µM
- Kd [1]: ≥ 5 µM
- Kd (rKv1.2): 4.5 ± 0.52 µM
- Kd (mKv1.1): 9.5 ± 1 µM
- percentage of dead cells (PI uptake) (CHO cells; 2 μM): 5.6%
- percentage of dead cells (PI uptake) (CHO cells; 5 μM): 4.7%
- clinical appearance (CF-1 BR mice; 7-day study): all animals appeared clinically normal
- mortality (CF-1 BR mice; 7-day study): no mortality
- body weight on day 1 (CF-1 BR mice; day 1): 17.8 g
- body weight on day 7 (CF-1 BR mice; day 7): 27.0 g
- Kd (BK (hSloα)): 25 ± 1.8 µM
- half-life ([2]; artificial stomach fluid (DAB 9), pH 1): ~45 min
- stability against hydrolysis ([2]; pH 5.0, 37° C.): completely stable
- stability against hydrolysis ([2]; pH 7.4, 37° C.): completely stable
- stability against hydrolysis ([2]; pH 10): completely stable
- Block of rKir2.1 (rKir2.1): no effect at 10 μM
- Kd (HSKM1): 8 ± 0.6 µM
- Kd (mKv1.3): 5 ± 0.35 µM
- percentage of dead cells (PI uptake) (human T-lymphocytes; 2 μM): 6.2%
- percentage of dead cells (PI uptake) (human T-lymphocytes; 5 μM): 7.0%
- Kd (Jurkat-SK): 23 ± 2 µM
- Kd (rKv4.2): 6 ± 0.87 µM
- logP (logP): 4

— patent US7235577B1 (priority 2000, dated 2007)
